Results reported in patent publication US20100209536A1, “Methods and Kits for Use in the Treatment and Prevention of Diseases or Conditions of the Immune System or Infectious Diseases” (The Brigham and Women's Hospital, Inc., priority 2006, published 2010).

Assays:
[1] = system: recurrent wheeze in children at age 3 years; assay: Project Viva vitamin D study: maternal intake during pregnancy and risk of recurrent wheeze in children at age 3 years; assay type: in vivo, human
Source text: (§1) Project Viva is a prospective cohort study examining prenatal factors in relation to outcomes of pregnancy and child health. Participants were recruited at eight obstetric offices of Harvard Vanguard Medical Associates, a large multispecialty urban/suburban group practice in eastern Massachusetts. At the 1st study visit, directly after the person's initial clinical prenatal visit, we obtained informed consent, administered a brief interview, and provided a take-home self-administered questionnaire. At the 2nd study visit, at 26 to 28 weeks gestation, we again administered a brief interview and provided a questionnaire. Project Viva participants gave birth at Brigham and Women's Hospital or Beth Israel Deaconess Medical Center in Boston. Within 3 days after delivery, we interviewed the mother. We reassessed mothers and children at 6 months, 1 year, and annually thereafter. At the time of this analysis, age 3 visits were almost complete.
Exclusion criteria included multiple gestation (e.g., twins), inability to answer questions in English, plans to move out of the area before delivery, and gestational age greater than 22 completed weeks at initial prenatal clinical appointment. Additional details of recruitment and follow-up have been presented elsewhere (Yunginger et al., Am. Rev. Respir. Dis. 146:888-894, 1992). Among 2,128 delivered infants in Project Viva, we excluded 228 because of missing first and second trimester diet assessment data and an additional 37 with a gestation of less than 34 completed weeks. […] Of the remaining 1,495 infants, 76 were lost to follow-up and 225 have not yet exited the 3-year time-window, leaving an analysis sample of 1,194 participants. Human subjects committees of Harvard Pilgrim Health Care, Brigham and. Women's Hospital, and Beth Israel Deaconess Medical Center approved the study protocols.
(§2) We obtained data directly from participants and from medical records, as detailed previously (Yunginger et al., Am. Rev. Respir. Dis. 146:888-894, 1992). Briefly, maternal diet assessment at both the 1st and 2nd visits was based on a validated 166-item semi-quantitative food frequency questionnaire (FFQ) (Fawzi et al., Ann. Epidemiol. 14:754-762, 2004). We slightly modified the FFQ for use in pregnancy from the FFQ used in the Nurses' Health Study and other cohort studies (Willett, New York: Oxford University Press; 1998). Modifications for use in pregnancy included changing the time referent, beverage section, and vitamin and supplement assessment. The FFQ used at the 1st visit reflected intakes in the 1st trimester and the time referent was “during this pregnancy.” In addition, we collected information on beverage intake during 2 specified time periods: before and after the participant learned that they were pregnant. To assess vitamin and supplement intake during the 1st trimester, we administered a separate interview that assessed dose, duration, and brand/type of multivitamin, prescribed prenatal vitamin, and supplements. The FFQ used at the 2nd visit (26 to 28 weeks of gestation) reflected intakes during the 2nd trimester; the time referent was “during the past 3 months.” The 2nd trimester instrument was the same as the 1st trimester, except that we assessed use of vitamins/supplements as part of the self-completed FFQ and we collected beverage information during the one time period.
To calculate intake of nutrients, we used the Harvard nutrient composition database (Hu, N. Engl. J. Med. 337:1491-1499, 1997). We calculated vitamin D intake for each FFQ, and the mean of these two values was the assigned exposure for each woman during pregnancy (Rifas-Shiman, Paediatr. Perinat. Epidemiol. 20:35-42, 2006). We used a similar approach for retinol and calcium intakes. For analyses based on foods rather than nutrients, we focused on milk (servings/day), the major contributor to vitamin D intake in the diet. […]

[2] = system: respiratory infection in children at age 3 years; assay: Project Viva vitamin D study: risk of respiratory infection in children at age 3 years; assay type: in vivo, human
Source text: as §1, §2
(§3) To calculate intake of nutrients, we used the Harvard nutrient composition database (Hu, N. Engl. J. Med. 337:1491-1499, 1997). We calculated vitamin D intake for each FFQ, and the mean of these two values was the assigned exposure for each woman during pregnancy (Rifas-Shiman, Paediatr. Perinat. Epidemiol. 20:35-42, 2006). We used a similar approach for retinol and calcium intakes. For analyses based on foods rather than nutrients, we focused on milk (servings/day), the major contributor to vitamin D intake in the diet. We also examined foods with possible effects on asthma risk (McKeever et al., Am. J. Respir. Crit. Care Med. 170:725-729, 2004; Devereux et al., J. Allergy Clin. Immunol. 115:1109-1117, 2005): fruits and vegetables (servings/day) and fish (servings/week).
(§4) Finally, we examined two related outcomes: respiratory infection and eczema. We defined “respiratory infection” as a positive response to at least one of three questions on any of the annual questionnaires: “since your child was born (was 12 months old, was 2 years old), have you been told by a health professional that he/she has: (a) bronchiolitis; (b) pneumonia; (c) bronchitis, croup, or any other respiratory infection?” We defined “eczema” as a positive response to one question on any of the annual questionnaires: “have you ever been told by a health care professional that your child has eczema?”
(§5) To assess the associations between vitamin D intake and clinical outcomes, we used multiple logistic regression models. […]

[3] = system: eczema in children at age 3 years; assay: Project Viva vitamin D study: risk of eczema in children at age 3 years; assay type: in vivo, human
Source text: as §1, §2, §3, §4, §5

any wheeze in children = assay: Project Viva vitamin D study: risk of any wheeze during the first three years of life; assay type: in vivo, human; conditions: n=416 cases; adjusted for the 12 factors in model A
Source text: as §1, with “We reassessed mothers and children at 6 months, 1 year, and annually thereafter. At the time of this analysis, age 3 visits were almost complete.” left out
We obtained data directly from participants and from medical records, as detailed previously (Yunginger et al., Am. Rev. Respir. Dis. 146:888-894, 1992). Briefly, maternal diet assessment at both the 1st and 2nd visits was based on a validated 166-item semi-quantitative food frequency questionnaire (FFQ) (Fawzi et al., Ann. Epidemiol. 14:754-762, 2004). […] To assess vitamin and supplement intake during the 1st trimester, we administered a separate interview that assessed dose, duration, and brand/type of multivitamin, prescribed prenatal vitamin, and supplements. […]

[4] = system: cellular response to dexamethasone; conditions: steroid-resistant asthmatics; cited from earlier work
[5] = quartile 2 (median 513 IU) vs quartile 1
[6] = quartile 3 (median 603 IU) vs quartile 1
[7] = quartile 4 (median 724 IU) vs quartile 1

vitamin D
Multivariate OR per 100 IU/day increase, recurrent wheeze ([1]; LMP in other seasons): 0.85
Multivariate OR per 100 IU/day increase, recurrent wheeze ([1]; LMP in winter): 0.62
Odds ratio, recurrent wheeze, model 2 with further control for child vitamin D intake from foods at 2 years ([1]; maternal intake quartiles, Table 2 model 2 plus child vitamin D intake from foods at 2 years): 0.34
Odds ratio, recurrent wheeze, model 2 with further control for child use of a vitamin supplement at age 6 months ([1]; maternal intake quartiles, Table 2 model 2 plus child vitamin supplement at 6 months): 0.39
Odds ratio, recurrent wheeze with 4+ wheezing episodes, per 100 IU increase ([1]; n=86 cases, adjusted for the 12 factors in model A): 0.79
Odds ratio, recurrent wheeze and a doctor-diagnosis of asthma, per 100 IU increase ([1]; n=132 cases, adjusted for the 12 factors in model A): 0.82
Odds ratio, recurrent wheeze, further adjustment for race/ethnicity and college education ([1]; per 100 IU/day maternal intake): 0.81
Odds ratio, recurrent wheeze, per 100 IU/day, Food Only, Unadjusted ([1]; per 100 IU/day maternal intake, Food Only): 0.81
Odds ratio, recurrent wheeze, per 100 IU/day, Supplement Only, Unadjusted ([1]; per 100 IU/day maternal intake, Supplement Only): 0.82
Odds ratio, recurrent wheeze, per 100 IU/day, Total intake, Unadjusted ([1]; per 100 IU/day maternal intake, Total): 0.81
Odds ratio, recurrent wheeze, per 100 IU/day, Food Only, Multivariate model A ([1]; per 100 IU/day, Food Only, adjusted for 12 factors): 0.79
Odds ratio, recurrent wheeze, per 100 IU/day, Food Only, Multivariate model B ([1]; per 100 IU/day, Food Only, model A plus vitamin D from supplements): 0.80
Odds ratio, recurrent wheeze, per 100 IU/day, Supplement Only, Multivariate model A ([1]; per 100 IU/day, Supplement Only, adjusted for 12 factors): 0.82
Odds ratio, recurrent wheeze, per 100 IU/day, Supplement Only, Multivariate model B ([1]; per 100 IU/day, Supplement Only, model A plus vitamin D from foods): 0.82
Odds ratio, recurrent wheeze, per 100 IU/day, Total, Multivariate model A ([1]; per 100 IU/day, Total, adjusted for 12 factors): 0.80
Odds ratio, recurrent wheeze, per 100 IU/day, Total, Multivariate model C ([1]; per 100 IU/day, Total, model A plus maternal intake of calcium): 0.79
Odds ratio, recurrent wheeze, per 100 IU/day, Total, Multivariate model D ([1]; per 100 IU/day, Total, model A plus maternal intake of retinol): 0.81
Odds ratio, recurrent wheeze, Multivariate model 1 [1, 5]: 0.49
Odds ratio, recurrent wheeze, Multivariate model 2 [1, 5]: 0.47
Odds ratio, recurrent wheeze, Unadjusted ([1]; quartile 2 of maternal intake (median 513 IU, range 446-562) vs quartile 1, n = 1,194 pairs): 0.55
Odds ratio, recurrent wheeze, Multivariate model 1 [1, 6]: 0.56
Odds ratio, recurrent wheeze, Multivariate model 2 [1, 6]: 0.54
Odds ratio, recurrent wheeze, Unadjusted ([1]; quartile 3 (median 603 IU, range 563-658) vs quartile 1): 0.55
Odds ratio, recurrent wheeze, Multivariate model 1 [1, 7]: 0.41
Odds ratio, recurrent wheeze, Multivariate model 2 [1, 7]: 0.38
Odds ratio, recurrent wheeze, Unadjusted ([1]; quartile 4 (median 724 IU, range 659-1,145) vs quartile 1 (median 356 IU)): 0.39
Effect of maternal intake on risk of respiratory infections ([2]; children at age 3 years): did not affect risk
Odds ratio, respiratory infection, Multivariate model 1 [2, 5]: 0.73
Odds ratio, respiratory infection, Multivariate model 2 [2, 5]: 0.74
Odds ratio, respiratory infection, Unadjusted [2, 5]: 0.68
Odds ratio, respiratory infection, Multivariate model 1 [2, 6]: 1.01
Odds ratio, respiratory infection, Multivariate model 2 [2, 6]: 1.01
Odds ratio, respiratory infection, Unadjusted [2, 6]: 0.92
Odds ratio, respiratory infection, Multivariate model 1 [2, 7]: 0.74
Odds ratio, respiratory infection, Multivariate model 2 [2, 7]: 0.75
Odds ratio, respiratory infection, Unadjusted [2, 7]: 0.68
Effect of maternal intake on risk of early childhood eczema ([3]; children at age 3 years): did not affect risk
Odds ratio, eczema, Multivariate model 1 [3, 5]: 0.88
Odds ratio, eczema, Multivariate model 2 [3, 5]: 0.86
Odds ratio, eczema, Unadjusted [3, 5]: 1.00
Odds ratio, eczema, Multivariate model 1 [3, 6]: 0.94
Odds ratio, eczema, Multivariate model 2 [3, 6]: 0.93
Odds ratio, eczema, Unadjusted [3, 6]: 1.03
Odds ratio, eczema, Multivariate model 1 [3, 7]: 0.95
Odds ratio, eczema, Multivariate model 2 [3, 7]: 0.92
Odds ratio, eczema, Unadjusted [3, 7]: 1.10
Odds ratio, any wheeze, per 100 IU increase of maternal intake (any wheeze in children): 0.89
Effect of supplementation on cellular response to dexamethasone [4]: improve the cellular response to dexamethasone
